Measured values as given in ChEMBL document CHEMBL4346659, “Design, synthesis and evaluation of novel 7H-pyrrolo[2,3-d]pyrimidin-4-amine derivatives as potent, selective and reversible Bruton's tyrosine kinase (BTK) inhibitors for the treatment of rheumatoid arthritis” (Eur J Med Chem, 2019).
Calls of active or inactive are those of the source. The calls are words filed in the database; no cut-off is given here.

How the values were obtained:
[1] = biological target: T1, Tyrosine-protein kinase BTK (Homo sapiens, UniProt Q06187); test: Inhibition of BTK (unknown origin) at 1 uM in the presence of ATP by caliper mobility shift assay relative to control
[2] = biological target: T1, Tyrosine-protein kinase BTK; test: Inhibition of BTK (unknown origin) at 0.1 uM in the presence of ATP by caliper mobility shift assay relative to control
[3] = test system: Ramos; test: Antiproliferative activity against human Ramos cells; assay type: functional, cell-based; settings: Homo sapiens, Ramos
[4] = test system: JeKo-1; test: Antiproliferative activity against human JeKo1 cells; assay type: functional, cell-based; settings: Homo sapiens, JeKo-1
[5] = test system: Daudi; test: Antiproliferative activity against human Daudi cells; assay type: functional, cell-based; settings: Homo sapiens, Daudi
[6] = biological target: T1, Tyrosine-protein kinase BTK; test: Inhibition of BTK (unknown origin) in the presence of ATP by caliper mobility shift assay
[7] = biological target: Tyrosine-protein kinase Tec (Homo sapiens, UniProt P42680); test: Inhibition of TEC (unknown origin)
[8] = biological target: Cytoplasmic tyrosine-protein kinase BMX (Homo sapiens, UniProt P51813); test: Inhibition of BMX (unknown origin)
[9] = biological target: Tyrosine-protein kinase ITK/TSK (Homo sapiens, UniProt Q08881); test: Inhibition of human recombinant ITK using Ulight-TK peptide as substrate measured after 30 mins in the presence of ATP by LANCE method
[10] = biological target: Tyrosine-protein kinase Blk (Homo sapiens, UniProt P51451); test: Inhibition of BLK (unknown origin)
[11] = biological target: Tyrosine-protein kinase Fgr (Homo sapiens, UniProt P09769); test: Inhibition of human recombinant FGR using Ulight-TK peptide as substrate measured after 60 mins in the presence of ATP by LANCE method
[12] = biological target: Tyrosine-protein kinase TXK (Homo sapiens, UniProt P42681); test: Inhibition of human recombinant TXK using Ulight-Poly GAT[EAY(1:1:1) as substrate measured after 30 mins in the presence of ATP by LANCE method
[13] = biological target: Proto-oncogene tyrosine-protein kinase Src (Homo sapiens, UniProt P12931); test: Inhibition of human recombinant SRC using Ulight-Poly GAT[EAY(1:1:1) as substrate measured after 10 mins in the presence of ATP by LANCE method
[14] = biological target: Tyrosine-protein kinase Fyn (Homo sapiens, UniProt P06241); test: Inhibition of human recombinant FYN using biotinyl-beta amyloid beta amyloid beta AYQAEENTYDEYEN as substrate measured after 60 mins in the presence of ATP by HTRF assay
[15] = biological target: Tyrosine-protein kinase HCK (Homo sapiens, UniProt P08631); test: Inhibition of HCK (unknown origin)
[16] = biological target: Tyrosine-protein kinase Lyn (Homo sapiens, UniProt P07948); test: Inhibition of human recombinant LYN using biotinyl-beta amyloid beta amyloid beta AKVEKIGEGTYGVVYK as substrate measured after 120 mins in the presence of ATP by HTRF assay
[17] = biological target: Tyrosine-protein kinase Lck (Homo sapiens, UniProt P06239); test: Inhibition of human recombinant LCK using Ulight-Poly GAT[EAY(1:1:1) as substrate measured after 10 mins in the presence of ATP by LANCE method
[18] = biological target: Tyrosine-protein kinase Yes (Homo sapiens, UniProt P07947); test: Inhibition of human recombinant YES using biotinyl-beta amyloid beta amyloid beta AYQAEENTYDEYEN as substrate measured after 30 mins in the presence of ATP by HTRF assay
[19] = biological target: Epidermal growth factor receptor (Homo sapiens, UniProt P00533); test: Inhibition of human recombinant EGFR using Ulight-CAGAGAIETDKEYYTVKD measured after 15 mins in the presence of ATP by LANCE method
[20] = biological target: Receptor tyrosine-protein kinase erbB-2 (Homo sapiens, UniProt P04626); test: Inhibition of human recombinant HER2 using biotinyl-beta amyloid beta amyloid beta AAEEEEYFELVAKKK measured after 10 mins in the presence of ATP by HTRF assay
[21] = biological target: Receptor tyrosine-protein kinase erbB-4 (Homo sapiens, UniProt Q15303); test: Inhibition of HER4 (unknown origin)
[22] = biological target: Tyrosine-protein kinase JAK3 (Homo sapiens, UniProt P52333); test: Inhibition of human recombinant JAK3 using Ulight-CAGAGAIETDKEYYTVKD measured after 60 mins in the presence of ATP by LANCE method
[23] = biological target: T1, Tyrosine-protein kinase BTK; test: Inhibition of BTK auto phosphorylation at Tyr223 residue in human Ramos cells at 100 nM measured after 1 hr by Western blot analysis; assay type: cell-based
[24] = biological target: T1, Tyrosine-protein kinase BTK; test: Inhibition of BTK auto phosphorylation at Tyr223 residue in human JeKo1 cells at 100 nM measured after 1 hr by Western blot analysis; assay type: cell-based
[25] = biological target: T1, Tyrosine-protein kinase BTK; test: Inhibition of BTK auto phosphorylation at Tyr223 residue in human Daudi cells at 100 nM measured after 1 hr by Western blot analysis; assay type: cell-based
[26] = biological target: T1, Tyrosine-protein kinase BTK; test: Inhibition of BTK in human Ramos cells assessed as reduction in PLCgamma-2 phosphorylation at Try1217 residue at 1000 nM after1 hr by Western blot analysis; assay type: cell-based
[27] = biological target: T1, Tyrosine-protein kinase BTK; test: Inhibition of BTK in human JeKo1 cells assessed as reduction in PLCgamma-2 phosphorylation at Try1217 residue at 1000 nM after1 hr by Western blot analysis; assay type: cell-based
[28] = biological target: T1, Tyrosine-protein kinase BTK; test: Inhibition of BTK in human Daudi cells assessed as reduction in PLCgamma-2 phosphorylation at Try1217 residue at 1000 nM after1 hr by Western blot analysis; assay type: cell-based
[29] = test system: Mus musculus; test: Antiarthritic activity in DBA1/J mouse model of collagen-induced arthritis assessed as reduction in clinical arthritic score at 30 mg/kg to 60 mg/kg, po qd; assay type: functional, organism-based
[30] = test system: Mus musculus; test: Antiarthritic activity in DBA1/J mouse model of collagen-induced arthritis assessed as reduction in reduction in paw thickness at 30 mg/kg to 60 mg/kg, po qd; assay type: functional, organism-based
[31] = test system: Mus musculus; test: Antiarthritic activity in DBA1/J mouse model of collagen-induced arthritis assessed as reduction in bone erosion at 30 mg/kg, po qd by H and E staining based assay; assay type: functional, organism-based
[32] = test system: Mus musculus; test: Antiarthritic activity in DBA1/J mouse model of collagen-induced arthritis assessed as reduction in cartilage damage at 30 mg/kg, po qd by H and E staining based assay; assay type: functional, organism-based
[33] = test system: Mus musculus; test: Antiarthritic activity in DBA1/J mouse model of collagen-induced arthritis assessed as reduction in cellular infiltration at 60 mg/kg, po qd by Safranin O-staining based assay; assay type: functional, organism-based
[34] = Toxicity in DBA1/J mouse model of collagen-induced arthritis assessed as effect on body weight at 30 to 60 mg/kg, po qd; assay type: organism-based; settings: in vivo
[35] = test system: Mus musculus; test: Antiarthritic activity in collagen-induced DBA1/J mouse arthritis model assessed as reduction injoint inflammation at 30 mg/kg or 60 mg/kg, po qd cotreated with ibrutinib at 12.5 mg/kg by micro CT analysis; assay type: functional, organism-based
[36] = test system: Mus musculus; test: Antiarthritic activity in DBA1/J mouse model of collagen-induced arthritis assessed as reduction in joint damage at 60 mg/kg, po qd by H and E staining based assay; assay type: functional, organism-based
[37] = test system: Mus musculus; test: Antiarthritic activity in DBA1/J mouse model of collagen-induced arthritis assessed as reduction in bone erosion at 60 mg/kg, po qd by micro-CT analysis; assay type: functional, organism-based
[38] = test system: Mus musculus; test: Antiarthritic activity in DBA1/J mouse model of collagen-induced arthritis assessed as reduction in bone erosion at 12.5 mg/kg, po qd by H and E staining based assay; assay type: functional, organism-based
[39] = test system: Mus musculus; test: Antiarthritic activity in DBA1/J mouse model of collagen-induced arthritis assessed as reduction in cartilage damage at 12.5 mg/kg, po qd by H and E staining based assay; assay type: functional, organism-based

T1 sequence (Q06187 whole entry): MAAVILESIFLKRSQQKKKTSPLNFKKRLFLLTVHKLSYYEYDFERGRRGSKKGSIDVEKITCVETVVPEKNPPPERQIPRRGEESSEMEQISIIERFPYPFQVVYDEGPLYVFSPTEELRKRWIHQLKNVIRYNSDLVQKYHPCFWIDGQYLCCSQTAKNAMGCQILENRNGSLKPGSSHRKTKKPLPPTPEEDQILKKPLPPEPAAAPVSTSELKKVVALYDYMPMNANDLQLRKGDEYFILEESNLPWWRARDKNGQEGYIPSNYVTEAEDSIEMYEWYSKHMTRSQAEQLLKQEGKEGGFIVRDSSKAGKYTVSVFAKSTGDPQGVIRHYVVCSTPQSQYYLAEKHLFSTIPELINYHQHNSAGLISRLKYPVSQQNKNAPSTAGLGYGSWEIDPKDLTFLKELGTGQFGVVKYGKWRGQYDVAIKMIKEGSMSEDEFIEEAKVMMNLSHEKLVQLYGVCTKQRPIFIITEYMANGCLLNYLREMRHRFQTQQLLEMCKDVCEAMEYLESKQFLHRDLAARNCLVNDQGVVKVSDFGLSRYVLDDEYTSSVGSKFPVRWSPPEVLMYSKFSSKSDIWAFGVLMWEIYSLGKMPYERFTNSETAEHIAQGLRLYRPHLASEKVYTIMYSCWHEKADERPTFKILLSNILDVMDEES
Sequence of Tyrosine-protein kinase JAK3 (P52333 whole entry): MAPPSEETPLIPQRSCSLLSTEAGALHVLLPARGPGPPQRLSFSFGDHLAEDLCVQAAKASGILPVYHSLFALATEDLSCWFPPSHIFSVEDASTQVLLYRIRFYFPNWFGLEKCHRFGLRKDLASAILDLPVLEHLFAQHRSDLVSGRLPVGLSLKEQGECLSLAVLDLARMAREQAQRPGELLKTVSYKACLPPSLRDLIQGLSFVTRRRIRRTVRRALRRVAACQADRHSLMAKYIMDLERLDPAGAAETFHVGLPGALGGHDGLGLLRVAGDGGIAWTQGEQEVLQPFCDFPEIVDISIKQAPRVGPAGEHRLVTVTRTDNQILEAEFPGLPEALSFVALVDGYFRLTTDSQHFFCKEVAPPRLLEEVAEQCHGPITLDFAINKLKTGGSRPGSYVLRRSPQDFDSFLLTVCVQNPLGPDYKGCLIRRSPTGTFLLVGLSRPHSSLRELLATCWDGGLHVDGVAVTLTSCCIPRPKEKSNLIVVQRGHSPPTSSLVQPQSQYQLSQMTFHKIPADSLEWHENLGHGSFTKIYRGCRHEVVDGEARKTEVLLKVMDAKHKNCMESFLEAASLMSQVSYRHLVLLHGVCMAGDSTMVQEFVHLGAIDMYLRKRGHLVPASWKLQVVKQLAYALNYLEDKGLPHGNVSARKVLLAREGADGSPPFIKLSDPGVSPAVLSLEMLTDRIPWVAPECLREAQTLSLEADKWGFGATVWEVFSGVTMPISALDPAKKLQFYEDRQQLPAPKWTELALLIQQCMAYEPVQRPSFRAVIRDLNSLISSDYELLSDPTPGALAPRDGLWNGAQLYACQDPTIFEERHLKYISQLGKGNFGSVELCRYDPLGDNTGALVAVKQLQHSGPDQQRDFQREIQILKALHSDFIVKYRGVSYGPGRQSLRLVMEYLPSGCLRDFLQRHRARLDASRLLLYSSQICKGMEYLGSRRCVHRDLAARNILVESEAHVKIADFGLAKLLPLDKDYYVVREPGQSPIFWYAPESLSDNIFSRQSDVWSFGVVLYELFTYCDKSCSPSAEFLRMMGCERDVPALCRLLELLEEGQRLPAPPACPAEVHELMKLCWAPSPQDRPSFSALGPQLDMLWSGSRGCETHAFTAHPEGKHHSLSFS
Sequence of Tyrosine-protein kinase Blk (P51451 whole entry): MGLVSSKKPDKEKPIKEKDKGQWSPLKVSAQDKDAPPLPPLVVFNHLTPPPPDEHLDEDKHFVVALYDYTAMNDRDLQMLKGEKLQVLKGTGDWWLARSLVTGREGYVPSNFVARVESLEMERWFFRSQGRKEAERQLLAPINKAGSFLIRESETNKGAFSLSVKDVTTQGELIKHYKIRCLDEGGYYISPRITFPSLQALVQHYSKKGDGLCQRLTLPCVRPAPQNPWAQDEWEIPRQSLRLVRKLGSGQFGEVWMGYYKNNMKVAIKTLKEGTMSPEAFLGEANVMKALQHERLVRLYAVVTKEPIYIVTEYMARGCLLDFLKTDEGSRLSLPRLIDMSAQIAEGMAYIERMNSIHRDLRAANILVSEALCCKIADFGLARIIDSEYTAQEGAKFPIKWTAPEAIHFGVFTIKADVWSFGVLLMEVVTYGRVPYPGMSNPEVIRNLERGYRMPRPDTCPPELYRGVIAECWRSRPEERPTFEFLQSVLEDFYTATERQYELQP
Sequence of Tyrosine-protein kinase Fyn (P06241 whole entry): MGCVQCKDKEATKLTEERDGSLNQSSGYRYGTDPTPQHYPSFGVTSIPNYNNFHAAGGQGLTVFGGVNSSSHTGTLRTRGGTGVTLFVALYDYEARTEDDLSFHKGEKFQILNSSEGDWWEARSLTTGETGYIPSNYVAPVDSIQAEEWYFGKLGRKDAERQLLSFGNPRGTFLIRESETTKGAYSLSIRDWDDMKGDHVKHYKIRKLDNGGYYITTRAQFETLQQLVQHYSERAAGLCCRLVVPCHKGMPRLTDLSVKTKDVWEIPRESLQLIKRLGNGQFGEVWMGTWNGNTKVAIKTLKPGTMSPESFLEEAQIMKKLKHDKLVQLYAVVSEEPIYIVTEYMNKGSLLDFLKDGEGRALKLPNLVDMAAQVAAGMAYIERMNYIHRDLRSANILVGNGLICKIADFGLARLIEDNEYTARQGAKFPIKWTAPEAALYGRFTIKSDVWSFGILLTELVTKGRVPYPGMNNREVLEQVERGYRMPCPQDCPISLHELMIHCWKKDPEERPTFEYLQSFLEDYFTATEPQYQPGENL
Sequence of Proto-oncogene tyrosine-protein kinase Src (P12931 2-536 limits assumed): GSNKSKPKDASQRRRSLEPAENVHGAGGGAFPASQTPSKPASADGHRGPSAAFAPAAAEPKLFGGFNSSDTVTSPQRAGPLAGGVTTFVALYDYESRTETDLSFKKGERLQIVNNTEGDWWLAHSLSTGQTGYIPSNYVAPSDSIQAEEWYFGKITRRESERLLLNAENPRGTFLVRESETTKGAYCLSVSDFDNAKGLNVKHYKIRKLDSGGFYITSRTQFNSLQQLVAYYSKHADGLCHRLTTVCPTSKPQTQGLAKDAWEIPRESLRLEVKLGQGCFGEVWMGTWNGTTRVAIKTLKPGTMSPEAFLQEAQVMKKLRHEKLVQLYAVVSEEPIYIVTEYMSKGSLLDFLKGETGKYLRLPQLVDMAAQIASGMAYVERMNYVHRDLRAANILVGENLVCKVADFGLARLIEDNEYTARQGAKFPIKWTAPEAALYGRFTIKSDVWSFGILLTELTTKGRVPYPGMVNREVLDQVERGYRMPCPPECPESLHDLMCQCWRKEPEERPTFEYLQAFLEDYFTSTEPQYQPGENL
Sequence of Cytoplasmic tyrosine-protein kinase BMX (P51813 whole entry): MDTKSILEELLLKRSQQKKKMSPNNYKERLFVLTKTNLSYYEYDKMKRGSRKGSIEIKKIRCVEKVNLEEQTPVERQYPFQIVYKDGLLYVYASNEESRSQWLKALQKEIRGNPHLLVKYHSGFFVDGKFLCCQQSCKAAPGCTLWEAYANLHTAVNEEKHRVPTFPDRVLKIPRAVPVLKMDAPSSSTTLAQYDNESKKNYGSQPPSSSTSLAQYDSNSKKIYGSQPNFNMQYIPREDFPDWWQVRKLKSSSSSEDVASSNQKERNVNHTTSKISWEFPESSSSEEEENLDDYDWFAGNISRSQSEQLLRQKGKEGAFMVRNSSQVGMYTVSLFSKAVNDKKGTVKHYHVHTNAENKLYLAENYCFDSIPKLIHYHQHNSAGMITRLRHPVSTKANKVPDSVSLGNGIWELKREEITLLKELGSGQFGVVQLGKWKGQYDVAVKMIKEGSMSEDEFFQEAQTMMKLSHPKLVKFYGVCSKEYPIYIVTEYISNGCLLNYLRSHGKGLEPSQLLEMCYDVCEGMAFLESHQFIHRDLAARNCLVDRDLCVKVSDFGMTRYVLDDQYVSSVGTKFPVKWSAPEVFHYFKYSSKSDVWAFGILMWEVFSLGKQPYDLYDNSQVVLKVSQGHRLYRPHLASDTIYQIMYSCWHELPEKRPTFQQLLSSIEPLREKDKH
Sequence of Tyrosine-protein kinase Lck (P06239 whole entry): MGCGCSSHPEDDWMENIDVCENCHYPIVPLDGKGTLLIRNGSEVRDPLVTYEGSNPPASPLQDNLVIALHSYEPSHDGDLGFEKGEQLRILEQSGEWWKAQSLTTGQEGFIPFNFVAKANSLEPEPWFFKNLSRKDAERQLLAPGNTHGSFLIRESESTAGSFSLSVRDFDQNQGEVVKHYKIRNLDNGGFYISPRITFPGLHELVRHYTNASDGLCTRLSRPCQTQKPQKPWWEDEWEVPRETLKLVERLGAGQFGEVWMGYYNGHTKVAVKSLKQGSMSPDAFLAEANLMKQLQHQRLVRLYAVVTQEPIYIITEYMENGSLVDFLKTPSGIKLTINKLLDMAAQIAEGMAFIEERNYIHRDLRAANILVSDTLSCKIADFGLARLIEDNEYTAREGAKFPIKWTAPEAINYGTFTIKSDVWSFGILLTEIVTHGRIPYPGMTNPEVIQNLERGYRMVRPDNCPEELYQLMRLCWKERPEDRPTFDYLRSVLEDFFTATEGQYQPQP

Q: Which inhibition [1] does the source give for `Nc1ncnc2c1c(-c1ccc3c(c1)OCO3)cn2C[C@H]1CCCN1C[C@@H]1CO1` here?
A: 94.5%

Q: And the inhibition [2]?
A: 81.6%

Q: And the IC50 [3]?
A: 18000 nM

Q: And the IC50 [4]?
A: 4830 nM

Q: And the IC50 [5]?
A: 8970 nM

Q: And the IC50 [6]?
A: 8.9 nM

Q: What does the source list for `Nc1ncnc2c1c(-c1ccc(Oc3ccccc3)cc1)cn2C[C@H]1CCCN1C[C@@H]1CO1`?
A: inhibition [1]: 99.8%; inhibition [2]: 96.6%; IC50 [7]: 44 nM; IC50 [8]: 83 nM; IC50 [3]: 8520 nM; IC50 [4]: 11100 nM; IC50 [5]: 7040 nM; IC50 [6]: 3 nM; IC50 [9]: > 1000 nM; IC50 [10]: 10 nM; IC50 [11]: 28 nM; IC50 [12]: 358 nM; IC50 [13]: 123 nM; IC50 [14]: 232 nM; IC50 [15]: 33 nM; IC50 [16]: 10 nM; IC50 [17]: 31 nM; IC50 [18]: 86 nM; IC50 [19]: > 1000 nM; IC50 [20]: > 1000 nM; IC50 [21]: 385 nM; IC50 [22]: > 1000 nM; inhibition [23]: Active; inhibition [24]: Active; inhibition [25]: Active; inhibition [26]: Active; inhibition [27]: Active; inhibition [28]: Active; Activity [29]: Dose-dependent effect; Activity [30]: Dose-dependent effect; Activity [31]: Active; Activity [32]: Active; Activity [33]: Active; Activity [34]: Non-Toxic; Activity [35]: Dose-dependent effect; Activity [36]: Active; Activity [37]: Active

Q: With `NC(=O)CN1CC[C@H](n2cc(-c3ccc4c(c3)OCO4)c3c(N)ncnc32)C1` as the molecule, how does the inhibition [1] read?
A: 48.6%

Q: And the inhibition [2]?
A: 12.6%

Q: What about the IC50 [3] of the same molecule?
A: 13300 nM

Q: What about the IC50 [4] of the same molecule?
A: 4980 nM

Q: And the IC50 [5]?
A: 3450 nM

Q: What about the IC50 [6] of the same molecule?
A: > 500 nM

Q: Which inhibition [1] does the source give for `Nc1ncnc2c1c(-c1ccc3c(c1)OCO3)cn2[C@H]1CCN(C[C@@H]2CO2)C1` here?
A: 93.5%

Q: And the inhibition [2]?
A: 87.6%

Q: And the IC50 [3]?
A: 12500 nM

Q: What about the IC50 [4] of the same molecule?
A: 3410 nM

Q: What about the IC50 [5] of the same molecule?
A: 2390 nM

Q: And the IC50 [6]?
A: 36.6 nM

Q: For `C=CC(=O)N1CCC[C@@H](n2nc(-c3ccc(Oc4ccccc4)cc3)c3c(N)ncnc32)C1` [IBRUTINIB], which IC50 [3] is on record?
A: 5010 nM

Q: And the IC50 [4]?
A: 1050 nM

Q: And the IC50 [5]?
A: 3920 nM

Q: And the Activity [38]?
A: Active

Q: What about the Activity [39] of the same molecule?
A: inactive

Q: With `Nc1ncnc2c1c(-c1ccc3c(c1)OCO3)cn2[C@H]1CCN(C[C@H]2CO2)C1` as the molecule, how does the inhibition [1] read?
A: 86.5%

Q: What about the inhibition [2] of the same molecule?
A: 62.2%

Q: What about the IC50 [3] of the same molecule?
A: 5000 nM

Q: And the IC50 [4]?
A: 2280 nM

Q: What about the IC50 [5] of the same molecule?
A: 2440 nM

Q: What about the IC50 [6] of the same molecule?
A: 41.9 nM

Q: What does the source list for `Nc1ncnc2c1c(-c1ccc3c(c1)OCO3)cn2C[C@@H]1CCN(C[C@@H]2CO2)C1`?
A: inhibition [1]: 86.3%; inhibition [2]: 48.3%; IC50 [3]: 13300 nM; IC50 [4]: 10300 nM; IC50 [5]: 15900 nM; IC50 [6]: 123 nM
